Values joined by “and” are separate entries in the source; they are usually repeats but may differ in a detail not shown here. Equal values may be shown once. “Also recorded” adds a separate entry of the source.
What was measured:
[1] = Inhibition of linoleic acid lipid peroxidation (AAPH); details: 100 μM; AAPH-induced oxidation of sodium linoleate, pH 7.4, 37 °C; na = no activity
Protocol: Production of conjugated diene hydro peroxide by oxidation of sodium linoleate in an aqueous solution was monitored at 234 nm. AAPH was used as a free radical initiator. Ten microliters of the 16 mM sodium linoleate solution was added to the UV cuvette containing 930 μL of 0.05 M phosphate buffer, pH 7.4 prethermostated at 37 °C. The oxidation reaction was initiated at 37 °C under air by the addition of 50 μL of 40 mM AAPH solution. 10 μL of the appropriate solutions of the tested compounds were added in the mixture. Lipid oxidation was measured in the presence of the same level of DMSO. The rate of oxidation at 37 °C was monitored by recording the increase in absorption at 234 nm caused by conjugated diene hydro peroxides [24].

[2] = Lipophilicity as RM values by RP-TLC; format: physicochemical; set-up: key: RM = log[(1/Rf) − 1]; details: MeOH:H2O (70/30), average of at least 5 measurements
Protocol: Reversed phase TLC (RP-TLC) was performed on silica gel plates impregnated with 5% (v/v) liquid paraffin in light petroleum ether. The mobile phase was a methanol/water mixture (70/30, v/v). The plates were developed in closed chromatography tanks saturated with the mobile phase at 24 °C. Spots were detected under UV light. RM values were determined from the corresponding Rf values (from five individual measurements) using the equation RM = log[(1/Rf) − 1] (Table 1).

soybean lipoxygenase = target: T1, soybean lipoxygenase (Glycine max, UniProt P08170); experiment: Soybean lipoxygenase inhibition in vitro (UV-based enzyme assay); format: biochemical; details: for IC50: sodium linoleate substrate, tris buffer pH 9, read-out: IC50 μΜ, inhibition of soybean lipoxygenase
T1 construct: purchased Sigma Chemical, Co. (St. Louis, MO, USA)
T1 sequence (P08170 1-839): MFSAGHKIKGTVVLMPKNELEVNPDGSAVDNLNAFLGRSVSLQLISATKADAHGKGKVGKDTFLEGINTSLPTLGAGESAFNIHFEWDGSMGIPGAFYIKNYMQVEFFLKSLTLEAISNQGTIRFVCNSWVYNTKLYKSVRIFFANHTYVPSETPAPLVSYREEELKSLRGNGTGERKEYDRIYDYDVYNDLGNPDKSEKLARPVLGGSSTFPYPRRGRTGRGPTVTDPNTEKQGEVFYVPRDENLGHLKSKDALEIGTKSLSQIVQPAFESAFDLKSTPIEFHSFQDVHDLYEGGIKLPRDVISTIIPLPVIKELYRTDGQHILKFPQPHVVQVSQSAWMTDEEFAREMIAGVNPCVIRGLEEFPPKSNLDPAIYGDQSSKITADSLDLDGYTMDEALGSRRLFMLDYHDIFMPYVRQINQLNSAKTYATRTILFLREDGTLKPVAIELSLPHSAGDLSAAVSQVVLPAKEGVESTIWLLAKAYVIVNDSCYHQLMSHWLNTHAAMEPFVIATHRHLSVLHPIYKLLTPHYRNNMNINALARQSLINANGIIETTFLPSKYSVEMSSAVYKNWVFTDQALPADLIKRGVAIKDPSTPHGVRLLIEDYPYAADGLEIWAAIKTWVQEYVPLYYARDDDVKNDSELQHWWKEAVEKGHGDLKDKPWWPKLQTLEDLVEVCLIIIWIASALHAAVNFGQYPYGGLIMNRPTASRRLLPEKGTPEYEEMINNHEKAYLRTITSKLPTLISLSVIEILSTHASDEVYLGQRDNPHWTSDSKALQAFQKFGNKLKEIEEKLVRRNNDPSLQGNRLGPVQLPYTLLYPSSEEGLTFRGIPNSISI
Protocol: The tested compounds were dissolved in DMSO (10 μL) and incubated at room temperature with sodium linoleate (100 mM) and 0.2 mL of enzyme solution (1/9 × 10^−4 w/v in saline) in buffer pH 9 (tris) at room temperature (final volume 1 mL). […] Several concentrations were used for the determination of IC50 values.

trypsin = target: T2, trypsin (Bos taurus, UniProt P00760); experiment: Inhibition of trypsin induced proteolysis in vitro (modified Kunitz method); format: biochemical, bovine; details: for IC50: bovine albumin substrate, pH 7.6, 37 °C, read-out: IC50 μΜ, inhibition of trypsin induced proteolysis
T2 construct: purchased Sigma Chemical, Co. (St. Louis, MO, USA); host or cells: bovine pancreas
T2 sequence (P00760 24-246): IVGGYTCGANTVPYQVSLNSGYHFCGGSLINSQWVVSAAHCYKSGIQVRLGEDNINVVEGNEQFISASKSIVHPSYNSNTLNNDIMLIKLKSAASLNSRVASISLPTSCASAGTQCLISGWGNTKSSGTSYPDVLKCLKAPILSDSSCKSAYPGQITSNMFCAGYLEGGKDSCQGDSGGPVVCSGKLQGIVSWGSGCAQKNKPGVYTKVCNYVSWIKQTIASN
Protocol: All chemicals, solvents, chemical and biochemical reagents were of analytical grade and purchased from commercial sources (Merck, Merck KGaA, Darmstadt, Germany, Fluka Sigma-Aldrich Laborchemikalien GmbH, Hannover, Germany, Alfa Aesar, Karlsruhe, Germany and Sigma, St. Louis, MO, USA). Soybean lipoxygenase, pancreatic bovine trypsin, sodium linoleate, 2,2-azobis (2-amidinopropane) dihydrochloride (AAPH) were obtained from Sigma Chemical, Co. (St. Louis, MO, USA).
The test was carried out according to a modified Kunitz method. Bovine albumin was used as substrate for trypsin [24]. The reaction mixture consisted of 200 μL of 0.075 mg/mL trypsin and 780 μL of phosphate buffer pH 7.6 (including the tested compounds (20 μL in DMSO, final concentration 100 μM) preincubated at 37 °C for 20 min and then 1 mL of albumin (stock solution 6 g/100 mL in phosphate buffer 0.1 M, pH 7.6) was added and incubated at 37 °C for 30 min. After the incubation 1 mL of 5% trichloroacetic acid was added to the incubated solution to stop the enzyme’s reaction and allowed to set at room temperature for 1 h. Then the solution was filtered and the absorption of the filtered solution was measured at 280 nm.

[3] = tested on: L929 mouse fibroblasts cells; experiment: Cytotoxicity, propidium iodide fluorescence method; format: cell-based; details: 24 h incubation, 1–100 μM
Protocol: The cytotoxicity of the synthesized derivatives was determined using the propidium iodide (PI) fluorescence method in the presence of different concentrations (1–100 μM) of these compounds. L929 mouse fibroblasts cells were used in this work since they have been previously used in the study of the pharmacological effects of antioxidant and anti-inflammatory agents. The cytotoxicity results of the new compounds against normal cells (such as the L929 fibroblasts) would give useful information as only non-cytotoxic compounds should be further evaluated as potential antioxidant drugs. The results are presented in Figure 1 in the form of the % cell survival values as propidium iodide % (PI)—values PI% for the examined compounds.
L929 mouse fibroblasts cells were cultured in EMEM supplemented with 10% horse serum, 2 mM L-glutamine, 1 mM sodium pyruvate, 0.1 mM nonessential amino acids, 1.5 g/L sodium bicarbonate and 100 μg/mL penicillin–streptomycin at 37 °C in a humidified atmosphere with 5% CO2. L929 cells were plated into 24-well plates at a density […] and allowed to attach and grow for 24 h. […] After 24 h incubation, the supernatant was removed and the cells were washed with PBS. […] The PI fluorescence (cell death) was determined with flow cytometry, FACS Calibur, Coulter Epics XL-MCL (Beckman, Inc., Mount Holly, NJ, USA). […]

| RM (±SD) [2] | IC50 (soybean lipoxygenase) | IC50 (trypsin) | melting point | Soybean LOX inhibition (in words) (soybean lipoxygenase) | inhibition at 100 µM (trypsin; 100 μM, na = no activity under the reported experimental conditions, read-out: Trypsin Inh. % @100 μM) | Anti-proteolytic activity, trypsin inhibition (in words) (trypsin) | inhibition at 100 µM (soybean lipoxygenase; 100 μM, na = no activity under the reported experimental conditions, read-out: LOX Inh. % @ 100 μΜ) | Molecule | ILP% @100 μΜ (% inhibition of lipid peroxidation) [1] | Cytotoxicity on L929 cells as PI% values (in words) [3] |
| --- | --- | --- | --- | --- | --- | --- | --- | --- | --- | --- |
|  |  |  |  |  |  |  |  | Cc1c(C)c2c(c(C)c1O)CCC(C)(C(=O)O)O2 (stereo not shown) [Trolox, reference compound] | 93% |  |
| −0.841 and −0.841 ± 0.0014 | 10 µM | 1 µM | 176 to 178 °C |  |  |  |  | COc1ccc(/C=C/C(=O)N(CC(O)COc2ccc(CC(N)=O)cc2)C(C)C)cc1OC (stereo not shown) [Compound 3a] | 86% |  |
| −0.374 ± 0.0176 | 100 µM |  |  | low or no activity |  |  |  | (E)-2-(benzylamino) ethyl 3-phenylacrylate [Compound 1e] |  |  |
|  | 6 µM | 2.75 µM |  |  |  |  |  | CC(C)N(C[C@H](O)COc1cccc2ccccc12)C(=O)/C=C/c1cccc(Oc2ccccc2)c1 [Compound S-2b, (S)-N-(2-hydroxy-3-(naphth-1-yloxy)propyl)-N-isopropyl-3-(3-phenoxyphenyl) acrylamide] | 86% |  |
|  |  |  |  |  | 53.6% |  |  | O=C(O)c1ccccc1O [Salicylic acid, reference compound] |  |  |
| 0.0889 ± 0.002 | 27.5 µM |  | 210 to 212 °C | low or no activity |  |  |  | O=C(/C=C/c1ccccc1)Oc1cccc2ccccc12 [Compound 1d, (E)-naphthalen-1-yl cinnamate] | inactive |  |
| 0.0819 and 0.0819 ± 0.01 | 10 µM | 0.516 µM | 172 to 174 °C |  |  |  |  | COc1ccc(/C=C/C(=O)N(CC(O)COc2cccc3ccccc23)C(C)C)cc1OC (stereo not shown) [Compound 3b, (E)-3-(3,4-dimethoxyphenyl)-N-(2-hydroxy-3-(naphthalen-1-yloxy)propyl)-N-isopropylacrylamide] | 71% |  |
|  | 22.5 µM |  |  |  |  | did not present any activity |  | CC(C)NCC(O)COc1ccc(CC(N)=O)cc1 (stereo not shown) [Atenolol, atenolol, reference compound] |  |  |
| 0.907 and 0.907 ± 0.008 | 6 µM | 0.425 µM | 118 to 120 °C |  |  |  |  | CC(C)N(CC(O)COc1cccc2ccccc12)C(=O)/C=C/c1cccc(Oc2ccccc2)c1 (stereo not shown) [Compound 2b, (E)N-(2-hydroxy-3-(naphthalen-1-yloxy)propyl)-N-isopropyl-3-(3phenoxyphenyl) acrylamide] | 84% |  |
| −0.720 and −0.720 ± 0.012 | 66 µM | 0.315 µM | 102 to 105 °C |  |  |  |  | CC(C)N(CC(O)COc1ccc(CC(N)=O)cc1)C(=O)/C=C/c1ccccc1 (stereo not shown) [Compound 1a] | 97% |  |
| 0.1402 ± 0.0227 |  | 100 µM |  | low or no activity |  |  | 20% | O=C(/C=C/c1ccccc1)OCCN(Cc1ccccc1)C(=O)/C=C/c1ccccc1 [Compound 1f, 2-(N-benzylcinnamamido) ethyl cinnamate] | inactive |  |
| −0.485 and −0.485 ± 0.044 |  |  |  |  |  |  |  | O=C(O)/C=C/c1ccccc1 [Compound 1, cinnamic acid] | 78% |  |

| Molecule | RM (±SD) [2] | IC50 (soybean lipoxygenase) | IC50 (trypsin) | melting point | Soybean LOX inhibition (in words) (soybean lipoxygenase) | inhibition at 100 µM (trypsin; 100 μM, na = no activity under the reported experimental conditions, read-out: Trypsin Inh. % @100 μM) | Anti-proteolytic activity, trypsin inhibition (in words) (trypsin) | inhibition at 100 µM (soybean lipoxygenase; 100 μM, na = no activity under the reported experimental conditions, read-out: LOX Inh. % @ 100 μΜ) | ILP% @100 μΜ (% inhibition of lipid peroxidation) [1] | Cytotoxicity on L929 cells as PI% values (in words) [3] |
| --- | --- | --- | --- | --- | --- | --- | --- | --- | --- | --- |
| O=C(O)/C=C/c1cccc(Oc2ccccc2)c1 [Compound 2, (E)-3-(3-phenoxyphenyl)acrylic acid] | −0.41 ± 0.016 | 66 µM |  |  |  |  |  |  | 84% |  |
| 3,4-dimethoxycaffeic acid [Compound 3] | −0.869 ± 0.0614 |  |  |  |  |  |  |  | 86% |  |
| CC(C)N(CC(O)COc1cccc2ccccc12)C(=O)/C=C/c1ccccc1 (stereo not shown) [Compound 1b, (E)-N-(2-hydroxy-3-(naphthalen-1-yloxy)propyl)-N-isopropylcinnamamide] | 0.411 and 0.411 ± 0.061 | 50 µM | 10 µM |  |  |  |  |  | 69% | remarkable cytotoxicity |
| CC(C)N(CC(O)COc1ccc(CC(N)=O)cc1)C(=O)/C=C/c1cccc(Oc2ccccc2)c1 (stereo not shown) [Compound 2a] | 0.128 ± 0.0204 | 35 µM | 0.325 µM |  |  |  |  |  | 86% | remarkable cytotoxicity |
| O=C(/C=C/c1ccccc1)OC12CC3CC(CC(C3)C1)C2 [Compound 1c, (E)-adamantan-1-yl cinnamate] | 0.911 and 0.911 ± 0.0112 |  | 49 µM | 183 to 185 °C | low or no activity; also recorded: inactive |  |  |  |  |  |

From publication PMC6152057, “Multifunctional Cinnamic Acid Derivatives” (Molecules : A Journal of Synthetic Chemistry and Natural …, 2017)
